Series [1] deals with Human alphaherpesvirus 2. As to the kind of experiment: Antiviral activity against HSV-2 infected in Vero cells incubated for 5 days by fluorescence based microtiter plate reader assay. Conditions: Human alphaherpesvirus 2, Vero, 120 h. The format is functional, organism-based.
Series [2] relates to Human alphaherpesvirus 1. As to the kind of experiment: Antiviral activity against HSV-1 infected in Vero cells incubated for 5 days by fluorescence based microtiter plate reader assay. The format is functional, organism-based. Conditions: Human alphaherpesvirus 1, Vero, 120 h.
Series [3] deals with Human alphaherpesvirus 1. As to the kind of experiment: Antiviral activity against HSV-1 infected in po dosed BALB/c mouse administered twice on infection day and three times daily from day 1 to 4 post infection. The format is functional. The conditions noted are these: Human alphaherpesvirus 1, 96 h, time 4 day.
Series [4] relates to Human alphaherpesvirus 2. The experiment in a line: Antiviral activity against HSV-2 infected in po dosed BALB/c mouse administered twice on infection day and three times daily from day 1 to 4 post infection. In kind it is functional. Conditions: Human alphaherpesvirus 2, 24 h.
Series [5] is described as follows: Oral bioavailability in human at 400 mg administered as 1 hr intravenous infusion. In kind it is ADME, organism-based. The conditions noted are these: in vivo.
Series [6] is described as follows: Oral bioavailability in rat. In kind it is ADME, organism-based. The conditions noted are these: in vivo.
Series [7] can be described thus: Oral bioavailability in human at 350 mg administered as 1 hr intravenous infusion once a week and measured upto 24 hrs. In kind it is ADME, organism-based. The conditions noted are these: in vivo.
The nature of series [8]: Oral bioavailability in monkey. The format is ADME, organism-based, Macaca mulatta. Conditions: rhesus monkey, in vivo.
Series [9] is described as follows: Oral bioavailability in dog. The format is ADME, organism-based, Canis lupus familiaris. The conditions noted are these: in vivo.
A short description of series [10]: Half life in dog at 1 mg/kg, po. In kind it is ADME, organism-based, Canis lupus familiaris. Conditions: in vivo.
For series [11], the system named is Human alphaherpesvirus 1. The experiment in a line: Antiviral activity against HSV-1 McKrae infected in BALB/c mouse assessed as reduction in viral load at 50 mg/kg, po infected with virus for 35 days prior to heat stress reactivation followed by compound treatment immediately and at 12 hrs post reactivation measured after 24 hrs post reactivation. In kind it is functional. More on the design: scale not given: the % may be the effect or the level left.

Series [12] is described as follows: AUC in dog at 1 mg/kg, po. Conditions: in vivo. On the set-up: dose 1 mg/kg, route po. In kind it is ADME, organism-based, Canis lupus familiaris.
Series [13] can be described thus: AUC in monkey at 1 mg/kg, po. In kind it is ADME, organism-based, Macaca mulatta. On the set-up: dose 1 mg/kg, route po. The conditions noted are these: rhesus monkey, in vivo.
Series [14] in a line: Terminal elimination half life in human at […]. In kind it is ADME, organism-based. Conditions: in vivo, read-out: beta t1/2 (converted).
The nature of series [15]: Half life in human at 1 mg/kg, po. In kind it is ADME, organism-based. Conditions: in vivo.
Series [16] can be described thus: AUC in rat at 1 mg/kg, po. In kind it is ADME, organism-based. More on the design: dose 1 mg/kg, route po. Conditions: in vivo.
Series [17] can be described thus: Protein binding in mouse plasma assessed as unbound fraction. In kind it is ADME, cell-free.
A short description of series [18]: Half life in rat at 1 mg/kg, po. The format is ADME, organism-based. The conditions noted are these: in vivo.
Series [19] is described as follows: Half life in monkey at 1 mg/kg, po. The format is ADME, organism-based, Macaca mulatta. Conditions: rhesus monkey, in vivo.
Series [20] is described as follows: Oral bioavailability in human at 1 mg/kg. The format is ADME, organism-based. The conditions noted are these: in vivo.
The next series has as its target Carbonic anhydrase 2 (Homo sapiens, UniProt P00918). As to the kind of experiment: Inhibition of carbonic anhydrase 2 (unknown origin) by CO2 hydration assay.
Series [21] in a line: Protein binding in dog plasma assessed as unbound fraction. The format is ADME, cell-free, Canis lupus familiaris.
The nature of series [22]: Protein binding in guinea pig plasma assessed as unbound fraction. The format is ADME, cell-free, Cavia porcellus.
The nature of series [23]: Protein binding in rabbit plasma assessed as unbound fraction. The format is ADME, cell-free, Oryctolagus cuniculus.
Series [24] can be described thus: Protein binding in monkey plasma assessed as unbound fraction. Conditions: rhesus monkey. In kind it is ADME, cell-free, Macaca mulatta.
Series [25] in a line: Oral bioavailability in rat at 1 mg/kg. The format is ADME, organism-based. The conditions noted are these: in vivo.
Series [26] can be described thus: Oral bioavailability in monkey at 1 mg/kg. The conditions noted are these: rhesus monkey, in vivo. In kind it is ADME, organism-based, Macaca mulatta.
A short description of series [27]: AUC in human at 1 mg/kg, po. In kind it is ADME, organism-based. More on the design: dose 1 mg/kg, route po. The conditions noted are these: in vivo.
Series [28] is described as follows: Protein binding in human plasma assessed as unbound fraction. In kind it is ADME, cell-free.
Series [29] is described as follows: Protein binding in rat plasma assessed as unbound fraction. The format is ADME, cell-free.
The target in series [30] is Voltage-gated inwardly rectifying potassium channel KCNH2 (Homo sapiens, UniProt Q12809). The experiment in a line: Inhibition of human ERG expressed in HEK293 cells by whole cell patch clamp assay. The format is toxicity, cell-based.
Voltage-gated inwardly rectifying potassium channel KCNH2, sequence (Q12809 whole entry): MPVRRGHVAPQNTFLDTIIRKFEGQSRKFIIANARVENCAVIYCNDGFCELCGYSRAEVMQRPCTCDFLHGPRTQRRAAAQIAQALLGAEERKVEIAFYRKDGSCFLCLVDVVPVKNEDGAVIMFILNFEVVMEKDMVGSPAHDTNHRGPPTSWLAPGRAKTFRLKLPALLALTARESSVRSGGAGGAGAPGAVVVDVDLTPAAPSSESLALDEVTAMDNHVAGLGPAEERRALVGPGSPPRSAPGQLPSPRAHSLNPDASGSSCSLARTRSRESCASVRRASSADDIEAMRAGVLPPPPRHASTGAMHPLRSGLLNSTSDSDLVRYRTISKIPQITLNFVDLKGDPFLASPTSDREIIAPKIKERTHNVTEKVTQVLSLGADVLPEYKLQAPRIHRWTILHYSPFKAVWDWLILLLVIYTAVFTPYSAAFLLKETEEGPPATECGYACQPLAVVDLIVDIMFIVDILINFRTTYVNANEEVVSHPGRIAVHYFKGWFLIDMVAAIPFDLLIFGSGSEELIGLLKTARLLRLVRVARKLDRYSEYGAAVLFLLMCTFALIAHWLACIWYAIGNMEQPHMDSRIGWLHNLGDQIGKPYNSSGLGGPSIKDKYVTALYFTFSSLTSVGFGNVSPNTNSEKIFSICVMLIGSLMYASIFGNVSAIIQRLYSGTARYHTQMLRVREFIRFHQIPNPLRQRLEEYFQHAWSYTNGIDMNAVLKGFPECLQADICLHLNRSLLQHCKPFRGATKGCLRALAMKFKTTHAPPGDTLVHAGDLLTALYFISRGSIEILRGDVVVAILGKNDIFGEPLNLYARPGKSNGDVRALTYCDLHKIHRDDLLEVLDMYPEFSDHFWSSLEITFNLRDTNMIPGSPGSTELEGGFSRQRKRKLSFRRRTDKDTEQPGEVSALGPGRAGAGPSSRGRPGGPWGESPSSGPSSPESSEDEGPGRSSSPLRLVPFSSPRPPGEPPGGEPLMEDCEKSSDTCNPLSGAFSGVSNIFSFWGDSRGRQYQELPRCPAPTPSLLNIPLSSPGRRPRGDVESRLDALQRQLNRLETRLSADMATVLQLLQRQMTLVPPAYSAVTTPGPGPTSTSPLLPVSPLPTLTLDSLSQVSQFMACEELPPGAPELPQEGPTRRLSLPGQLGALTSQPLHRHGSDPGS
A short description of series [31]: Oral bioavailability in dog at 1 mg/kg. The format is ADME, organism-based, Canis lupus familiaris. Conditions: in vivo.
A short description of series [32]: Protein binding in minipig plasma assessed as unbound fraction. In kind it is ADME, cell-free, Sus scrofa domesticus. Conditions: pig.
A short description of series [33]: Octanol/water partition coefficient, log P of the compound. In kind it is physicochemical.

This note sets out measurements from ChEMBL document CHEMBL5108063, “Discovery, Chemistry, and Preclinical Development of Pritelivir, a Novel Treatment Option for Acyclovir-Resistant Herpes Simplex Virus Infections” (J Med Chem, 2022).

In general, IC50 refers to the concentration at which inhibition is half-maximal. For `Cc1nc(N(C)C(=O)Nc2ccc(-c3ccccc3)cc2)sc1S(=O)(=O)NC1CC1`, the results for the 50% inhibitory concentration (IC50) with Human alphaherpesvirus 2 [1] and in the series with Human alphaherpesvirus 1 [2] were 100 nM and 20 nM, respectively.

What is called ED50 is the dose that gives a 50% effect, or the effect in half of the subjects. In the case of `CC(C)[C@H](N)C(=O)OCCOCn1cnc2c(=O)nc(N)[nH]c21` [VALACYCLOVIR], the ED50 turned out to be 17 mg/kg with Human alphaherpesvirus 1 [3] and 14 mg/kg in the series on Human alphaherpesvirus 2 [4].

In the case of `COc1ccccc1-c1ccc(CC(=O)N(C)c2nc(C)c(S(N)(=O)=O)s2)cc1`, the half-maximal inhibitory concentration (IC50) in the series with Human alphaherpesvirus 2 [1] worked out at 0.05 nM; with Human alphaherpesvirus 1 [2], 2 nM.

Regarding `Cc1ccc(F)cc1-c1ccc(CC(=O)N(C)c2nc(C)c(S(N)(=O)=O)s2)cc1`, the IC50 with Human alphaherpesvirus 2 [1] was determined as 125 nM; with Human alphaherpesvirus 1 [2], 100 nM.

As for `Cc1nc(C(C)C(=O)Nc2ccc(-c3ccccc3)cc2)sc1S(N)(=O)=O` (centres undefined), the values for the half-maximal inhibitory concentration (IC50) in the series on Human alphaherpesvirus 2 [1] and with Human alphaherpesvirus 1 [2] were 10 nM and 50 nM, respectively.

In the series on Human alphaherpesvirus 1 [2], `Cc1nc(N(C)C(=O)Cc2ccc(-c3ccccc3)cc2)sc1S(=O)(=O)NCCN` displayed a half-maximal inhibitory concentration (IC50) of 100 nM.

As for `CNS(=O)(=O)c1sc(N(C)C(=O)Cc2ccc(-c3ccccc3)cc2)nc1C`, the values for the half-inhibitory concentration (IC50) in the series on Human alphaherpesvirus 2 [1] and in the series with Human alphaherpesvirus 1 [2] were 50 nM and 0.5 nM, respectively.

Broadly, the bioavailability is the share of a dose that reaches the circulation, judged against a reference dose that is usually intravenous. On to `Nc1nc2c(ncn2CCC(CO)CO)c(=O)[nH]1` [PENCICLOVIR], for which the bioavailability in [5] was 60%.

In turn, `Cc1nc(N(C)C(=O)Cc2ccc(-c3c(C)noc3C)cc2)sc1S(N)(=O)=O` gave an IC50 with Human alphaherpesvirus 1 [2] of over 5 nM.

Consider `Cc1nc(N(C)C(=O)Nc2ccc(N3CCOCC3)cc2)sc1S(=O)(=O)N(C)C`, for which the IC50 in the series with Human alphaherpesvirus 2 [1] was found to be 1500 nM; in the series with Human alphaherpesvirus 1 [2], 750 nM.

For `CC1Cc2ccc(S(=O)(=O)NC3CC3)cc2N1C(=O)Nc1ccc(-c2ccccc2)cc1` (centres undefined), the IC50 turned out to be 150 nM in the series on Human alphaherpesvirus 2 [1] and 50 nM in the series on Human alphaherpesvirus 1 [2].

As for `Cc1nc(N(C)C(=O)Cc2ccc(-c3ccccc3)cc2)sc1S(=O)(=O)NCCO`, the concentration for half-maximal inhibition (IC50) came out at 5 nM in the series with Human alphaherpesvirus 2 [1] and 0.75 nM with Human alphaherpesvirus 1 [2].

Take `Cc1nc(N(C)C(=O)Cc2ccc(-c3ccccc3)cc2)sc1S(N)(=O)=O`: the IC50 in the series with Human alphaherpesvirus 2 [1] is 5 nM; with Human alphaherpesvirus 1 [2], under 0.05 nM.

For `CC1Cc2ccc(S(N)(=O)=O)cc2N1C(=O)Nc1ccc(-c2ccccc2)cc1` (centres undefined), the IC50 with Human alphaherpesvirus 2 [1] was determined as 60 nM; with Human alphaherpesvirus 1 [2], 10 nM.

For the compound `CNS(=O)(=O)c1ccc2c(c1)N(C(=O)Nc1ccc(N3CCCC3)cc1)C(C)C2` (centres undefined), the results for the 50% inhibitory concentration (IC50) in the series with Human alphaherpesvirus 2 [1] and in the series with Human alphaherpesvirus 1 [2] were 40 nM and 25 nM, respectively.

`Nc1nc2c(ncn2COCCO)c(=O)[nH]1` [ACYCLOVIR]: the bioavailability in [6] came out at 65%; in [7], 54%; in series [8], 63%; in [9], 83%. The compound also had an ED50 in the series on Human alphaherpesvirus 2 [4] of 0.5 mg/kg.

`Cc1nc(N(C)C(=O)Cc2ccc(-c3ccccc3)cc2)sc1S(=O)(=O)NCC(F)(F)F`: the IC50 with Human alphaherpesvirus 2 [1] came out at 150 nM; in the series on Human alphaherpesvirus 1 [2], 50 nM.

By AUC is commonly meant concentration integrated over time. For the compound `Cc1nc(N(C)C(=O)Cc2ccc(-c3ccccn3)cc2)sc1S(N)(=O)=O`, the figures for the t1/2 in [10], in series [18] and in series [19] were 22 h, 5 h and 30 h, respectively. Also, in the series with Human alphaherpesvirus 1 [11], the Activity is 32%. For the same compound, the exposure (AUC) in series [12] is 54200 ng·h/mL; in [13] it was 39500 ng·h/mL; in [16] it was 12900 ng·h/mL; in [27] it was 90800 ng·h/mL. Moreover, the half-life in [14] and in series [15] was 60 h throughout. For the same compound, the results for the bioavailability in series [5], in series [25] and in series [31] were 60%, 65% and 83%, respectively. The Fu in [17] is given as 0.97%; in [21], 1%; in series [22], 5.9%; in series [23], 3.4%; in series [24], 0.75%; in series [28], 2.7%. Besides, the values for the Fu in series [29] and in series [32] were 1.2% and 2.5%, respectively. For the same compound, the ED50 with Human alphaherpesvirus 1 [3] came out at 22 mg/kg; in the series on Human alphaherpesvirus 2 [4], 16 mg/kg. Also, the 50% inhibitory concentration (IC50) in the series with Human alphaherpesvirus 2 [1] was 16 nM; on Carbonic anhydrase 2, 2000 nM; in the series with Human alphaherpesvirus 1 [2], 20 nM; in [30], 160000 nM. The F in series [20] was 73%; in series [26], 63%.

As for `Cc1nc(NC(=O)Nc2ccc(N3CCOCC3)cc2)sc1S(=O)(=O)N(C)C`, the IC50 in the series on Human alphaherpesvirus 2 [1] was 4000 nM; in the series with Human alphaherpesvirus 1 [2], 2000 nM.

The logP is the decadic logarithm of the partition coefficient of the neutral form, usually between octanol and water. In turn, `CS(=O)(=O)O.Cc1nc(N(C)C(=O)Cc2ccc(-c3ccccn3)cc2)sc1S(N)(=O)=O.O` yielded a logP in series [33] of 1.745.

For `CNS(=O)(=O)c1sc(N(C)C(=O)Nc2ccc(-c3ccccc3)cc2)nc1C`, the figures for the half-inhibitory concentration (IC50) in the series with Human alphaherpesvirus 2 [1] and with Human alphaherpesvirus 1 [2] were 5 nM and 1 nM, respectively.

With `COc1ccc(F)cc1-c1ccc(CC(=O)N(C)c2nc(C)c(S(N)(=O)=O)s2)cc1`, the 50% inhibitory concentration (IC50) with Human alphaherpesvirus 2 [1] was under 0.05 nM; in the series with Human alphaherpesvirus 1 [2], 0.25 nM.

With `Cc1nc(N(C)C(=O)Cc2ccc(-c3cccnc3)cc2)sc1S(N)(=O)=O`, the IC50 in the series with Human alphaherpesvirus 2 [1] and with Human alphaherpesvirus 1 [2] was 5 nM in each case.

With `Cc1nc(N(C)C(=O)Cc2ccc(-n3cccn3)cc2)sc1S(N)(=O)=O`, the half-inhibitory concentration (IC50) was 100 nM in the series with Human alphaherpesvirus 2 [1] and 10 nM with Human alphaherpesvirus 1 [2].
